Consider six compounds from US20110046142A1, “ANTIBIOTIC COMPOUNDS” (priority 2007, published 2011).

In brackets after ≈: the same amount, converted by molar mass. Like-named read-outs stand apart in the source and are kept apart here.

For data set [1], the system named is E. coli K12. The data set can be described thus: Growth/no growth control wells (Z′-factor), OD600. The format is cell-based. How it is done:
The general procedure to establish the Z′-factor was tested. Since the output of the screening is a typical growth/no growth assay, this was performed by comparing growth in control wells to those containing a model antimicrobial, ciprofloxacin at 30 μg/ml. E. coli K12 were cultured in LB medium, and exponentially-growing cells were dispensed at 10^6/ml in 384-well microtiter plates, 30 μl/well. Six plates were used in this experiment. Ciprofloxacin was added to half of the wells (3 μl in LB, bringing the final volume to 33 μl). After an overnight incubation at 37 C, the OD600 of the plates were read, and the values of each well were used to calculate Z′-factor: Z′=1−(3SD++3SD−)/IAve+−Ave−I, where: SD+=positive control standard deviation; SD−=negative control standard deviation; Ave+=positive control average; and Ave−=negative control average). The following table for Z′-factor interpretation was used:
Before beginning the screen, a Z′-test was run. This was conducted by comparing growth in negative control wells to those with the prodrug AZT at 5 μg/ml. E. coli K12 cells were cultured in LB medium, and exponentially-growing cells were dispensed at 10^5/ml in 384-well microtiter plates, 30 μl/well. Four plates were used in this experiment. After an overnight incubation at 37° C., the OD600 of the plates were read, and the values of each well were used to calculate Z′-factor: […]

Data set [2] concerns P. aeruginosa. The data set can be described thus: MIC. To be noted: Pseudomonas aeruginosa; 1×MIC. The format is cell-based.
Data set [3] has as its system P. aeruginosa. As to the kind of experiment: Killing of logarithmic, stationary and biofilm cultures, colony count. To be noted: for percentage of live cells: 5 μg/ml, 6 hrs. It is filed as cell-based. How it is done:
Persister cells in planktonic and biofilm populations are characterized for their antibiotic sensitivity in this example. Several bactericidal antimicrobials were chosen to test the resistance of P. aeruginosa to killing—ofloxacin, a fluoroquinolone; tobramycin, an aminoglycoside; carbenicillin, a β-lactam; and peracetic acid, a disinfectant oxidant (Spoering et al. (2001) J. Bacteriol. 183:6746-6751). Biofilms were grown essentially by the method of Ceri (Ceri et al. (1999) J. Clin. Microbiol. 37:1771-1776) and as described in Brooun et al. (2000) Antimicrob. Agents Chemother. 44:640-646. The device used for biofilm formation is a platform carrying 96 polystyrene pegs that fit in a microtiter plate. Preformed biofilms were incubated in the presence of an antimicrobial agent, and survival was measured after disrupting the biofilms by colony count.
Logarithmic state, stationary and biofilm cultures were challenged with carbenicillin. Carbenicillin is a bactericidal antibiotic that, similarly to most β-lactams, only kills rapidly growing cells (Tuomanen et al. (1986) Scand. J. Gastroenterol. Suppl:10-14). […] The amount of killing of logarithmic cells approached a plateau at concentrations above 1.67×MIC, indicating the presence of a persister subpopulation. These 0.1% cells in the rapidly growing logarithmic culture were invulnerable to killing by carbenicillin at 600 μg/ml.
Unlike carbenicillin, ofloxacin can kill non-growing cells (Brooun et al. (2000) Antimicrob. Agents Chemother. 44:640-646). Logarithmic, stationary and biofilm cultures were challenged with ofloxacin over a wide range of concentrations, from 1×MIC (0.5 μg/ml) to 30×MIC (15 μg/ml). After a 6 hrs incubation time with the antibiotic, viability was determined by colony count. The majority of cells in the three populations examined were killed at low concentrations of ofloxacin (FIG. 3B). The killing in all three cultures was distinctly biphasic, indicating the presence of persister cells. The levels of persisters were dramatically higher in the dense stationary planktonic and biofilm cultures as compared to logarithmic cells. […] At 5 μg/ml ofloxacin, which is the clinically achievable concentration (Schulz et al. (1997) Pharmazie 52:895-911), the percentage of live cells was 0.001% in the logarithmic population, 0.1% in the biofilm and 2.5% in the stationary culture (FIG. 3B).
Tobramycin at 50 μg/ml (the maximal clinically achievable concentration is 10 μg/ml), (Schulz et al. (1997) Pharmazie 52:895-911) eliminated 90% of the biofilm cells, and the remaining population declined gradually with increasing amounts of the antibiotic. At high concentrations surviving persisters became apparent. Tobramycin was ineffective against stationary planktonic cells, apparently due to the dependence of killing of growth.
Peracetic acid, an oxidizing disinfectant, was used in order to test the ability of a sterilizing agent to act against persisters. […] Similar results showing biphasic killing, and high level of persisters in stationary and biofilm populations, also were obtained with S. aureus and E. coli (Keren et al. (2004) FEMS Microbiol. Lett. 230:13-18).

For data set [4] the following is noted: Schulz et al. (1997); cited from earlier work.
The test system of data set [5] is E. coli strains overexpressing NfnB+ and NfsA+. The data set can be described thus: MIC, validation of screen hits, overexpression strains. It is filed as cell-based. The method, then: (§1) To validate the screening, the activity of nitazole against strains with nitrate reductases deleted and in strains overexpressing nitrate reductases were tested. A prodrug activated by a nitrate reductase has lower activity against a strain lacking the enzyme, and a higher activity in an overexpression strain, as compared to a wild type. E. coli has two known […], NfnB and NfsA. Strains tested were wild type (WT) E. coli, two knockout strains lacking the 2 nitroreductases (NfnB−; NfsA−), and against two strains overexpressing the same enzymes (NfnB+ and NfsA+). MIC values for nitazole are shown below.

Data set [6] deals with E. coli knockout strains lacking the 2 nitroreductases (NfnB−; NfsA−). As to the kind of experiment: MIC, validation of screen hits, knockout strains. The format is cell-based. The method, then: as §1
Data set [7] concerns wild type (WT) E. coli. The data set can be described thus: MIC, validation of screen hits. It is filed as cell-based. The method, then: as §1
In data set [8] the test system is E. coli K12 knockout pool (BacPool) and wild type. As to the kind of experiment: Prodrug screen, growth/no growth of BacPool knockout mix versus wild type. The format is cell-based. The note with it: compounds at about 46-50 μg/ml, OD600 after overnight incubation. The text has this:
A complete, ordered E. coli K12 knockout library of 4320 genes and predicted ORFs (the Keio library) was used (Baba et al. (2006). Mol. Systems Biol. 2:2006.0008). The knockouts were constructed using the Wanner method with a kanamycin cassette replacing the ORFs (Datsenko et al. (2000) Proc. Natl. Acad. Sci. USA 97:6640-6645). All strains of this library were combined in a mix BacPool1) for screening. This permitted screening of the library against all strains simultaneously, instead of screening a full industry-size library against each of the individual E. coli 4×10^3 knockout strains.
The library mix was prepared by first culturing all strains overnight in LB medium, and then adding equal aliquots into a tube. This material was then mixed, dispensed in vials and stored at −80° C. For the screen, one vial was thawed, diluted to 10^5 cells/ml in LB, and dispensed into 384 well microtiter plates. The compounds were added from DMSO stocks at a final concentration of 46 μg/ml. The same compounds were added to plates containing the wild type isogenic control. Screening was performed at the Harvard NSRB/NERCE screening facility that host a collection of 150,000 compounds (see Tables 1A and 1B). All screens at NSRB/NERCE were performed in duplicate, which strongly decreases the rate of false positives and negatives. For each tested molecule there are three possible scenarios when scoring for growth/no growth:
Growth in both the BacPool and K12 wells: indicates lack of antimicrobial activity;
Growth inhibition in both the BacPool and K12 wells: a possible antibiotic (direct activity) or generally toxic compound is present, but is not a prodrug; or
Growth of a BacPool well and no growth of the K12 well: a prodrug hit.
After an overnight incubation of plates at 37° C., the plates were read at OD600. Compounds that had no effect on the growth of the mix and inhibited the growth of the wild type were recorded as hits. The wells with growth indicated a prodrug hit that is not converted into a drug by a particular deletion mutant in the mix. The mutant strain is then identified in a secondary screen (see Example 2).
Yet another screen was performed on 147,500 compounds, using the protocol described below. […]
An E. coli KanR culture was grown in LB broth containing 50 μg/ml Kanamycin for 20 hrs at 37° C. in a shaking incubator. […] The plates were then incubated for 20 hrs at 37° C., and then the plates were read for Optical Density at 600 nm and were scored for growth/no growth. […]
Hits were identified by calculating the % of inhibition of growth of E. coli measured by OD600. The data were analyzed as follows: negative controls (N), positive controls (P), and compounds (X) ODs were separately averaged and the resulting means were used to calculate % of inhibition of E. coli growth: […]

One may read the MIC as the lowest concentration found to suppress growth.

For `O=C(O)c1cn(C2CC2)c2cc(N3CCNCC3)c(F)cc2c1=O` [ciprofloxacin], the “growth in wells with antibiotic” value in data set [1] (30 μg/ml, overnight at 37 C) was “no case of substantial growth”.

Compound `NC[C@H]1O[C@H](O[C@H]2[C@H](O)[C@@H](O[C@H]3O[C@H](CO)[C@@H](O)[C@H](N)[C@H]3O)[C@H](N)C[C@@H]2N)[C@H](N)C[C@@H]1O` [tobramycin] showed an MIC in data set [2] of 1 µg/mL (≈ 2.14 µM). The compound also registered a biofilm cells eliminated in data set [3] (biofilm, 50 μg/ml) of 90%. In data set [3] (logarithmic cells, 1 to 1500 μg/ml), the logarithmic persisters entry was “no logarithmic persisters were detected”. Besides, in data set [3] (stationary planktonic cells), the “killing of stationary cells” value is on record as “ineffective”. Besides, the “(maximal) clinically achievable concentration” value in data set [4] was 10 µg/mL.

For `CC1COc2c(N3CCN(C)CC3)c(F)cc3c(=O)c(C(=O)O)cn1c23` (stereo not shown) [ofloxacin], the MIC in data set [2] was found to be 0.5 µg/mL (≈ 1.38 µM). The “percentage of live cells” value was 0.1% in data set [3] (biofilm), 0.001% in data set [3] (logarithmic population) and 2.5% in data set [3] (stationary culture). Further, the “(maximal) clinically achievable concentration” value in data set [4] is 5 µg/mL.

Turning to “benzoxazole, 2,3-dihydro-5-nitro-2-(5-nitro-2-thienyl)-(9CI)”, the minimum inhibitory concentration (MIC) in data set [5] (NfnB+) was determined as 3.1 µg/mL; in data set [5] (NfsA+) it was 6.3 µg/mL; in data set [6] (NfnB−) it was 25 µg/mL; in data set [6] (NfsA−), 25 µg/mL; in data set [7], 12.5 µg/mL. Also, in data set [8], the “screen outcome (prodrug hit / direct activity)” value is “prodrug hit”.

As to `CC(=O)Nc1ncc([N+](=O)[O-])s1` [nitazole, Acetamide, N-(5-nitro-2-thiazolyl)-(8CI,9CI)], the MIC in data set [5] (Escherichia coli, NfnB+) came out at 1.6 µg/mL (≈ 8.55 µM); in data set [5] (Escherichia coli, NfsA+) it was 6.3 µg/mL (≈ 33.7 µM); in data set [6] (Escherichia coli), 25 µg/mL (≈ 134 µM); in data set [6] (NfsA−), 25 µg/mL (≈ 134 µM); in data set [7] (Escherichia coli, read-out: MIC) it was 12.5 µg/mL (≈ 66.8 µM). Moreover, in data set [8], the “screen outcome (prodrug hit / direct activity)” value is recorded as “prodrug hits”.

For `Cc1cn([C@H]2C[C@H](N=[N+]=[N-])[C@@H](CO)O2)c(=O)[nH]c1=O` [zidovudine], the “inhibition of E. coli growth” value in data set [1] (positive control at 5 μg/ml) is recorded as “complete inhibition”. In data set [8], the “screen outcome (prodrug hit / direct activity)” value is listed as “prodrug hits”.
